# Key:
# [1] = system: locally advanced or metastatic urothelial cancer; assay: Phase 2 single-arm, open-label study of enfortumab vedotin 1.25 mg/kg IV on Days 1, 8, 15 of each 28-day cycle: efficacy (confirmed ORR, DOR, PFS per RECIST 1.1 by BICR; OS); format: in vivo, human; details: for ORR point estimates for all subgroups: ORR subgroup analysis
# Description: This is a single-arm, open-label, multicenter trial designed to assess the efficacy and safety of enfortumab vedotin as a single agent in locally advanced or metastatic urothelial cancer patients who have previously received systemic therapy with a CPI. For the purpose of this study a CPI is defined as a programmed cell death protein 1 (PD-1) inhibitor or programmed death-ligand 1 (PD-L1) inhibitor (including, but not limited to: atezolizumab, pembrolizumab, durvalumab, avelumab, and nivolumab). Patients must either have received prior treatment with platinum-containing chemotherapy (Cohort 1) or received no prior treatment with platinum-containing or other chemotherapy and are ineligible for treatment with cisplatin at time of enrollment (Cohort 2).
# Enfortumab vedotin at a dose of 1.25 mg/kg will be administered as an intravenous (IV) infusion over approximately 30 minutes on Days 1, 8, and 15 of each 28-day cycle. Patients will continue to receive study treatment until disease progression, unacceptable toxicity, investigator decision, consent withdrawal, start of a subsequent anticancer therapy, pregnancy, or study termination by the sponsor. After discontinuation of study treatment, patients will be followed every 8 weeks (1 week) for response assessments, ECOG performance status, and physical exams. After 1 year of on study, the frequency of follow-up exams including response assessments will be reduced to every 12 weeks (+1 week). Patients that have progressed or begun subsequent anticancer therapy will be contacted every 8 weeks (1 week) up to 1 year on study, and every 12 weeks (+1 week) thereafter to obtain information on subsequent anticancer therapy, and survival status until death, study closure, or withdrawal of consent, whichever occurs first. The study will be closed 5 years after enrollment of the last patient, or when no patients remain in long-term follow-up, whichever occurs first. Additionally, the sponsor may terminate the study at any time.
# Measures of anticancer activity will be assessed by computed tomography (CT) scans with contrast approximately every 8 weeks (±1 week). After 1 year on study, response assessments will be reduced to every 12 weeks (±1 week). The schedule of response assessments should not be adjusted for dose delays/interruptions or other reasons for changes in the timing of a patient's study activities; timepoints for response assessments should be calculated from Cycle 1 Day 1 during treatment. For patients who cannot receive CT scans with contrast, other protocol-specified imaging methods may be used. Patients must be evaluated using the same imaging method throughout the study for efficacy assessments. CT scans with contrast at the minimum will include the chest, abdomen, and pelvis. Other regions should be scanned if the patient has known or suspected disease in that region. Responses (complete response (CR) or partial response (PR)) will be confirmed with repeat scans 4 weeks (+1 week window) after first documentation of response. The determination of antitumor activity will be based on confirmed objective response assessments as defined by RECIST Version 1.1.
# Response and progression will be assessed by an independent review facility (IRF). The investigator will make treatment decisions based on site assessments of scans by RECIST.
# The primary endpoint of this study is the confirmed ORR per IRF. The ORR is defined as the proportion of patients with confirmed CR or PR according to RECIST Version 1.1. The ORR per IRF and its exact 2-sided 95% confidence interval (CI) using the Clopper-Pearson method (Clopper et al., Biometrika (1934); 26(4): 404-413) will be calculated.
# The primary efficacy endpoint of this study is ORR (confirmed CR or PR per Response Evaluation Criteria in Solid Tumors (RECIST) Version 1.1) as determined by blinded independent central review (BICR) by an independent review facility (IRF). […]
# [2] = system: patients treated with enfortumab vedotin; assay: Phase 1 study ASG-22CE-13-2 of enfortumab vedotin: dermatologic and corneal adverse events; format: in vivo, human
# Description: In the phase 1 study (Study ASG-22CE-13-2), rash and similar dermatologic AEs were common among patients treated with enfortumab vedotin, and were seen more frequently at the highest dose. Although the exact etiology of dermatologic toxicities associated with enfortumab vedotin is unclear at this time, due to the expression of Nectin-4 in the skin, rash may be an on-target toxicity. The most common dermatological AEs reported in ASG-22CE-13-2 were drug eruption, rash, skin exfoliation, skin pigmentation disorder, and rash maculo-papular. Most occurred during Cycle 1, and some were associated with pruritus. Almost all were mild, with the exception of two events of rash reported as Grade 3 in the 1 mg/kg dose group. […] Mild rash related to enfortumab vedotin should be treated using local supportive care as needed. Topical corticosteroids have been used along with antihistamines for pruritus as needed.
# Slit lamp examinations will be conducted on at least the first 60 enrolled patients (from Cohorts 1 and/or 2) on Cycle 2 Day 22 (±1 week) and Cycle 6 Day 22 (±1 week). If corneal AEs are observed in <15% of the first 60 enrolled patients and if the events are generally low grade or asymptomatic, the IDMC may make a recommendation to cease Cycle 2 Day 22 and/or Cycle 6 Day 22 slit lamp exams for the remaining patients if warranted based on review of the cumulative ocular safety data. Based on the results from the Phase 1 study (Study ASG-22CE-13-2), as of the data cut-off date of 14 Nov. 2016, there were 3 patients who reported experiencing corneal adverse events out of 33 patients on […] of enfortumab vedotin. Assuming an event rate of 9% (3/33), with a sample size of 60, the probability of observing >3 events (5%) is 80.0% and the probability of observing <9 events (15%) is 91.2%. If the event rate is higher, the probability of observing <9 events is decreased. For example, if the event rate is 20%, the probability of observing <9 events is decreased to 12.7%. Based on the analysis described above and the review of cumulative ocular safety data, the IDMC recommended that the Cycle 2 Day 22 and Cycle 6 Day 22 slit lamp exams be discontinued in July 2018 and August 2019, respectively.
# [3] = Cohort 2 (N = 89), BICR, additional 3 months follow-up
# [4] = Cohort 2 (N = 89), BICR, primary analysis
# [5] = Cohort 2, BICR, additional 3 months follow-up
# [6] = Cohort 2, BICR, primary analysis
# [7] = Cohort 2, Kaplan-Meier, additional 3 months follow-up
# [8] = Cohort 2, additional 3 months follow-up
substance,measurement,setting,value
enfortumab vedotin: Nectin-4 directed ADC: fully human anti-nectin-4 IgG1 kappa antibody (AGS-22C3) conjugated to MMAE via protease-cleavable maleimidocaproyl valine-citrulline linker,Best Overall Response: Complete Response (CR),[1]; [3],20 (22.5) n (%)
same,Best Overall Response: Not Evaluable (NE),[1]; [3],8 (9.0) n (%)
same,Best Overall Response: Partial Response (PR),[1]; [3],25 (28.1) n (%)
same,Best Overall Response: Progressive Disease (PD),[1]; [3],19 (10.1) n (%)
same,ORR (CR or PR),[1]; [3],45 (50.6) n (%)
same,Best Overall Response: Complete Response (CR),[1]; [4],18 (20.2) n (%)
same,Best Overall Response: Not Evaluable (NE),[1]; [4],8 (9.0) n (%)
same,Best Overall Response: Partial Response (PR),[1]; [4],28 (31.5) n (%)
same,Best Overall Response: Progressive Disease (PD),[1]; [4],8 (9.0) n (%)
same,ORR (CR or PR),[1]; [4],46 (51.7) n (%)
same,Number of responders (confirmed CR or PR),"[1]; Cohort 2 (N = 89), additional 3 months follow-up",45
same,95% CI of confirmed ORR,[1]; [5],39.8-61.3%
same,CR among treated patients,[1]; [5],22%
same,confirmed ORR,[1]; [5],51%
same,CR (complete response rate),[1]; [6],20.2%
same,ORR,[1]; [6],51.7%
same,median DOR,[1]; [6],10.9 months
same,median PFS,[1]; [6],5.8 months
same,participants with reduction in tumor measurements,[1]; [6],88%
same,responders with ongoing response (18 out of 46),[1]; [6],39%
same,% Responders without PD or death (95% CI),[1]; [7],"35.8 (14.49, 57.91) %"
same,% Responders without PD or death at 6 months (95% CI),[1]; [7],"67.9 (51.11, 79,95) %"
same,% Responders without PD or death at 12 months (95% CI),[1]; [7],"53.7 (35.51, 68.85) %"
same,"Duration of response, 25th percentile",[1]; [7],"5.8, − months"
same,"Duration of response, Median (95% CI)",[1]; [7],"13.8 (6.41, −) months"
same,ORR point estimates for all subgroups,[1]; [8],more than 40%
same,ORR point estimates for all subgroups,"[1]; Cohort 2, primary analysis",more than 40%
same,95% CI of median PFS,[1]; [8],5.0(8.3) months
same,median DOR,[1]; [8],13.8 months
same,median PFS,[1]; [8],6.7 months
same,median OS,"[1]; Cohort 2, additional 3 months follow-up, median follow-up 16.0 months",16.1 months
same,ORR,"[1]; Cohort 2, patients who did not respond to prior PD-1/PD-L1 inhibitors, additional 3 months follow-up",46%
same,ORR,"[1]; Cohort 2, patients with liver metastasis, additional 3 months follow-up",43%
same,ORR,"[1]; Cohort 2, patients with primary tumor sites in the upper tract, additional 3 months follow-up",58%
same,median OS,"[1]; Cohort 2, primary analysis, median follow-up 13.4 months",14.7 months
same,dermatological AEs that required discontinuation of study drug,[2],None
same,events of rash reported as Grade 3,[2]; 1 mg/kg dose group,two
same,corneal adverse event rate (3/33),[2]; 1.25 mg/kg,9%
same,events of Grade 1 papular rash that required a dose reduction,[2]; 1.25 mg/kg,one
same,patients who reported experiencing corneal adverse events,"[2]; out of 33 patients on 1.25 mg/kg, data cut-off 14 Nov. 2016",3

# From patent publication US20230364254A1, “METHODS FOR TREATING CANCERS WITH ANTIBODY DRUG CONJUGATES (ADC) THAT BIND TO 191P4D12 PROTEINS” (priority 2020, published 2023)
